Data as given in patent US20230055237A1, “COMPOUNDS AND METHODS FOR THE TREATMENT OF CYSTIC FIBROSIS” (Flatley Discovery Lab, LLC, priority 2019, published 2023).

Target: T1, CFTR (Homo sapiens, UniProt P13569, DEL508-508)
T1 construct: Primary CF airway epithelial cells were obtained from the UNC Cystic Fibrosis Tissue Procurement and Cell Culture Core; host or cells: primary CF airway epithelial cells, differentiated at the air-liquid interface
Assay: Equivalent current assay in primary CF airway epithelial cells (NAUC, combination with 1st site corrector FDL169 or VX-809)
Assay type: cell-based
Settings: 37° C., 24 h

[1] = test compound 10 μM in combination with 1st site corrector VX-809 (3 μM)
[2] = test compound 3 μM in combination with 1st site corrector VX-809 (3 μM)
[3] = test compound 1 μM in combination with 1st site corrector FDL169 (3 μM)
[4] = test compound 3 μM in combination with 1st site corrector FDL169 (3 μM)
[5] = test compound 10 μM in combination with 1st site corrector FDL169 (3 μM)
[6] = test compound 1 μM in combination with 1st site corrector VX-809 (3 μM)

T1 sequence (P13569 with tags, fused parts or gaps DEL508-508): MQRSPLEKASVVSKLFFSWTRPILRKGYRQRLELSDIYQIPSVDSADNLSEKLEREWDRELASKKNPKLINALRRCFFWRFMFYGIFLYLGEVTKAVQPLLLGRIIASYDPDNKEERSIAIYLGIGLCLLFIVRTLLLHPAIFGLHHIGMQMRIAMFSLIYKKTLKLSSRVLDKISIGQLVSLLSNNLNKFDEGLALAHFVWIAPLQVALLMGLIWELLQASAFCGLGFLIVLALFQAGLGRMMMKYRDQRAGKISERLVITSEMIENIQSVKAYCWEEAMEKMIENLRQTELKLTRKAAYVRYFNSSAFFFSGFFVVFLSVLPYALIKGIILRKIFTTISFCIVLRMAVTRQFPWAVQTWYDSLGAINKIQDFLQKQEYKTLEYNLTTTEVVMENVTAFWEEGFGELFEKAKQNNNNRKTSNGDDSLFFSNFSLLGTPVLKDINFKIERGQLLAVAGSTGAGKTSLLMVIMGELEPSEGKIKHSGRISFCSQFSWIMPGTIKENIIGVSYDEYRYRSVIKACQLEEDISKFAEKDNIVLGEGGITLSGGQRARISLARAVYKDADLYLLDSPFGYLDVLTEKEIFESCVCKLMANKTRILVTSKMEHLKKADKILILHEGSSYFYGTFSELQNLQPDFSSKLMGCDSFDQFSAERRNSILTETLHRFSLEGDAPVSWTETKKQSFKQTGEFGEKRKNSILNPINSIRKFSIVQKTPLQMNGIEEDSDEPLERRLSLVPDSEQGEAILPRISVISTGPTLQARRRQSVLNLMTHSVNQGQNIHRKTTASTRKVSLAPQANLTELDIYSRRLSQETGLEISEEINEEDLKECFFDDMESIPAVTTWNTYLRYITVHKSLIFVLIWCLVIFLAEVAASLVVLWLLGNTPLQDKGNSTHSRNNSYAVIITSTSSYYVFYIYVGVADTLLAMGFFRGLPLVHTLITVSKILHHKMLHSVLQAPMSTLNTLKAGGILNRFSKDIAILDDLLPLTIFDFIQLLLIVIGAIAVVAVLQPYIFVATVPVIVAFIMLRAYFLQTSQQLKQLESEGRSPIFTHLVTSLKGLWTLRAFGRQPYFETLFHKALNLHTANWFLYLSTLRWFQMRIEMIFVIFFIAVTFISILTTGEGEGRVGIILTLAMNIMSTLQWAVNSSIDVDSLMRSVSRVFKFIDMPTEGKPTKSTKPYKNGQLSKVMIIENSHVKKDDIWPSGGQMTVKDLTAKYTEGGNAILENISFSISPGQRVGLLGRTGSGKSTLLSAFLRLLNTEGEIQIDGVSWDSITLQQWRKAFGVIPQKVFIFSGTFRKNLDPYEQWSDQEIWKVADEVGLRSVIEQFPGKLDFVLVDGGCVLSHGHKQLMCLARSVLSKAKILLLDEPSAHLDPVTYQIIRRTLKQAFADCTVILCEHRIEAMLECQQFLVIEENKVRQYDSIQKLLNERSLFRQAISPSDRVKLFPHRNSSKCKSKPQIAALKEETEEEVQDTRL

Row | Compound | Nauc @ 10 μM [1] | Nauc @ 3 μM [2] | other results
1 | O=C(Nc1cc(Cl)cc(Cl)c1)C1C(C(F)(F)c2cccc(C(F)(F)F)c2)NC2(C(=O)Nc3c(Cl)cc(Cl)cc32)C1C(=O)O (centres unmarked) [Example 70.a] | + (NAUC “+” refers to an observed NAUC <140% of positive control) | – | –
2 | O=C(Nc1cc(Cl)cc(Cl)c1)C1C(C(=O)O)C(c2cc(Cl)cc(Cl)c2)N2CCCC12 (centres unmarked) [Example 27] | ++ (NAUC “++” refers to an observed NAUC 170-140% of positive control) | ++ (NAUC “++” refers to an observed NAUC 170-140% of positive control) | –
3 | Cc1ccc(CCNC(=O)C2C3CC(F)(F)CN3C3(C(=O)Nc4c(Cl)cc(Cl)cc43)C2C(=O)O)cc1 (centres unmarked) [Example 49] | +++ (NAUC “+++” refers to an observed NAUC>170% of positive control) | ++ (NAUC “++” refers to an observed NAUC 170-140% of positive control) | –
4 | CC(C)N(C(=O)[C@H]1[C@H]2CC(F)(F)CN2[C@]2(C(=O)Nc3c(Cl)cc(Cl)cc32)[C@H]1C(=O)O)c1cc(Cl)cc(Cl)c1 [Example 174] | – | – | Nauc @ 1 μM [3]: +++ (NAUC “+++” refers to an observed NAUC>170% of positive control); Nauc @ 3 μM [4]: +++ (NAUC “+++” refers to an observed NAUC>170% of positive control); Nauc @ 10 μM [5]: +++ (NAUC “+++” refers to an observed NAUC>170% of positive control)
5 | CC(C)(CO)c1cccc(CCNC(=O)[C@H]2[C@H]3CC(F)(F)CN3C3(C(=O)Nc4c(Cl)cc(Cl)cc43)[C@H]2C(=O)O)c1 (some centres unmarked) [Example 293] | + (NAUC “+” refers to an observed NAUC <140% of positive control) | – | –
6 | O=C(O)[C@H]1[C@@H](C(=O)N(c2cc(Cl)cc(Cl)c2)C2CC(O)C2)[C@H]2CC(F)(F)CN2[C@]12C(=O)Nc1c(Cl)cc(Cl)cc12 (some centres unmarked) [Example 158] | – | – | Nauc @ 1 μM [3]: + (NAUC “+” refers to an observed NAUC <140% of positive control); Nauc @ 3 μM [4]: + (NAUC “+” refers to an observed NAUC <140% of positive control)
7 | Cn1nc(NC(=O)[C@H]2[C@H]3CC(F)(F)CN3[C@]3(C(=O)Nc4c(Cl)cc(Cl)cc43)[C@H]2C(=O)O)c2cccnc21 [Example 123] | – | + (NAUC “+” refers to an observed NAUC <140% of positive control) | Nauc @ 1 μM [6]: + (NAUC “+” refers to an observed NAUC <140% of positive control)
8 | COc1c(Cl)cc(NC(=O)C2C3CC(C)(C)CN3C3(C(=O)Nc4c(Cl)cc(Cl)cc43)C2C(=O)O)cc1Cl (centres unmarked) [Example 14] | +++ (NAUC “+++” refers to an observed NAUC>170% of positive control) | +++ (NAUC “+++” refers to an observed NAUC>170% of positive control) | –
9 | O=C(Nc1ccccc1-c1ccccc1)[C@H]1[C@H]2CC(F)(F)CN2[C@]2(C(=O)Nc3c(Cl)cc(Cl)cc32)[C@H]1C(=O)O [Example 121] | ++ (NAUC “++” refers to an observed NAUC 170-140% of positive control) | +++ (NAUC “+++” refers to an observed NAUC>170% of positive control) | Nauc @ 1 μM [6]: +++ (NAUC “+++” refers to an observed NAUC>170% of positive control)
10 | O=C(Nc1cc(Cl)cc(Cl)c1)C1C(C(F)(F)c2cccc(Cl)c2)NC2(C(=O)Nc3c(Cl)cc(Cl)cc32)C1C(=O)O (centres unmarked) [Example 68.c] | +++ (NAUC “+++” refers to an observed NAUC>170% of positive control) | +++ (NAUC “+++” refers to an observed NAUC>170% of positive control) | Nauc @ 1 μM [6]: + (NAUC “+” refers to an observed NAUC <140% of positive control)
11 | COc1cc(C(F)(F)F)cc(NC(=O)C2C3CC(F)(F)CN3C3(C(=O)Nc4c(Cl)cc(Cl)cc43)C2C(=O)O)n1 (single isomer, unassigned) [Example 80.7a.1, 5,7-dichloro-6′,6′-difluoro-1′-((6-methoxy-4-(trifluoromethyl)pyridin-2-yl)carbamoyl)-2-oxo-1′,2′,5′,6′,7′,7a′-hexahydrospiro[indoline-3,3′-pyrrolizine]-2′-carboxylic acid] | + (NAUC “+” refers to an observed NAUC <140% of positive control) | – | –
12 | O=C(Nc1cc(Cl)cc(Cl)c1)C1CN(CC(F)(F)F)C2(C(=O)Nc3c(Cl)cc(Cl)cc32)C1C(=O)O (centres unmarked) [Example 41] | ++ (NAUC “++” refers to an observed NAUC 170-140% of positive control) | + (NAUC “+” refers to an observed NAUC <140% of positive control) | –
13 | O=C(Nc1cc(C(F)(F)F)cc(C(F)(F)F)n1)C1C2C[C@@](O)(C(F)(F)F)CN2C2(C(=O)Nc3c(Cl)cc(Cl)cc32)C1C(=O)O (some centres unmarked) [Example 55] | + (NAUC “+” refers to an observed NAUC <140% of positive control) | ++ (NAUC “++” refers to an observed NAUC 170-140% of positive control) | –
14 | CC(=O)OCOC(=O)[C@H]1[C@@H](C(=O)N(C)c2cc(Cl)cc(Cl)c2)[C@H]2CC(F)(F)CN2[C@]12C(=O)Nc1c(Cl)cc(Cl)cc12 (single isomer, unassigned) [Example 256b] | + (NAUC “+” refers to an observed NAUC <140% of positive control) | – | –
15 | Cc1oc(=O)oc1COC(=O)[C@H]1[C@@H](C(=O)N(C)c2cc(Cl)cc(Cl)c2)[C@H]2CC(F)(F)CN2C12C(=O)Nc1c(Cl)cc(Cl)cc12 (mixture of isomers) [Example 250.3a, rac-(5-methyl-2-oxo-1,3-dioxo1-4-yl)methyl (1′R,2′S,3R,7a′R)-5,7-dichloro-1-((3,5-dichlorophenyl)(methyl)carbamoyl)-6′,6′-difluoro-2-oxo-1′,2′,5′,6′,7′,7a′-hexahydrospiro[indoline-3,3′-pyrrolizine]-2′-carboxylate] | +++ (NAUC “+++” refers to an observed NAUC>170% of positive control) | – | –
16 | O=C(Nc1cc(Cl)cc(Cl)c1)C1C(C(F)(F)c2ccccn2)NC2(C(=O)Nc3c(Cl)cc(Cl)cc32)C1C(=O)O (centres unmarked) [Example 72.a] | + (NAUC “+” refers to an observed NAUC <140% of positive control) | – | –
17 | C[C@]1(OCc2ccccc2)C[C@@H]2[C@H](C(=O)N(CC3CC3)c3cc(Cl)cc(Cl)c3)[C@H](C(=O)O)[C@@]3(C(=O)Nc4c(Cl)cc(Cl)cc43)N2C1 [Example 93] | – | – | Nauc @ 1 μM [3]: +++ (NAUC “+++” refers to an observed NAUC>170% of positive control); Nauc @ 3 μM [4]: +++ (NAUC “+++” refers to an observed NAUC>170% of positive control); Nauc @ 10 μM [5]: ++ (NAUC “++” refers to an observed NAUC 170-140% of positive control)
18 | CN(C(=O)[C@H]1[C@H]2CC(F)(F)CN2[C@]2(C(=O)Nc3c(Cl)cc(Cl)cc32)[C@H]1C(=O)O)c1cc(Cl)cc(Cl)c1 [Example 169] | – | – | Nauc @ 1 μM [3]: ++ (NAUC “++” refers to an observed NAUC 170-140% of positive control); Nauc @ 3 μM [4]: +++ (NAUC “+++” refers to an observed NAUC>170% of positive control); Nauc @ 10 μM [5]: +++ (NAUC “+++” refers to an observed NAUC>170% of positive control)
19 | CN(C(=O)[C@H]1[C@H]2CC(F)(F)CN2[C@]2(C(=O)Nc3c(Cl)cc(Cl)cc32)[C@H]1C(=O)OCOC(=O)C(C)(C)C)c1cc(Cl)cc(Cl)c1 (racemic) [Example 251a, rac-(pivaloyloxy)methyl (1′R,2′S,3R,7a′R)-5,7-dichloro-1-((3,5-dichlorophenyl)(methyl)carbamoyl)-6′,6′-difluoro-2-oxo-1′,2′,5′,6′,7′,7a′-hexahydrospiro[indoline-3,3′-pyrrolizine]-2′-carboxylate] | + (NAUC “+” refers to an observed NAUC <140% of positive control) | – | –
20 | O=C(NCCc1cccc(Cl)c1)C1C2CC(F)(F)CN2C2(C(=O)Nc3c(Cl)cc(Cl)cc32)C1C(=O)O (centres unmarked) [Example 51] | +++ (NAUC “+++” refers to an observed NAUC>170% of positive control) | +++ (NAUC “+++” refers to an observed NAUC>170% of positive control) | –
